How the values were obtained:
Format in all cases: cell-based
[1] = system: Staphylococcus aureus ATCC 25923; assay: MIC against S. aureus, microbroth dilution in MH broth, without or with 5% horse serum; conditions: MIC class; S. aureus ATCC 25923
Procedure: (§1) Testing was conducted to determine the in vitro antimicrobial activity of a series of compounds synthesised by Alchemia Pty Ltd. The antimicrobial activity of each compound was determined at a single concentration (128 μg/mL) in Mueller Hinton (MH) broth against the ATCC type strain of Staphylococcus aureus. […] Compounds showing activity at concentrations up to 32-64 μg/mL in the presence/absence of serum were then tested for MIC activity against a standard set of 5 microorganisms comprising of ATCC type strains of MRSA, Enterococcus faecalis, Enterococcus faecium, VRE and Escherichia coli. CLSI (formerly NCCLS) microbroth dilution technique was used.
(§2) Each compound is initially dissolved in 100 μL of DMSO. Each solution is then diluted further in 0.9 mL of sterile MH broth to give a total volume of 1 mL (1000 μg/mL) This stock solution is then further diluted in MH broth to give a test solution with final concentration of 128 μg/mL using the following formula: 0.5 ml stock in 3.4 ml MH broth
(§3) Each test organism was subcultured from the −70° C. deep freezer onto horse blood agar. The plates were streaked to obtain isolated colonies and incubated at 35° C. in non-CO2 incubator for 24 hours. A second subculture was carried out onto horse blood agar. For each test organism, 1-2 colonies were selected from an 18-24 hour culture and inoculated into 2 ml sterile MH broth. The turbidity was adjusted to 0.5 McFarland standard.
(§4) A 1:10 dilution in MH broth (200 μL in 2 ml MH) of the 0.5 McFarland control was prepared. 5 μL of this diluted solution was used to inoculate the trays.
100 μL of sterile MH broth was added in columns 2-12. 200 μL of test solution was added in column 1. 100 μL was transferred in column 2 giving a ½ dilution. 100 μL from column 2 was then transferred to column 3 (¼ dilution). This dilution was carried on until column 12. A second tray containing the same test solution was inoculated in a similar manner using sterile MH broth with 5% heat inactivated horse serum. 5 μL of organism solution was then added to each well. The plates were then sealed and incubated at 35° C. in a non-CO2 incubator for 18-24 hours. The plates were examined for growth after the incubation time.
(§5) If the test organism is sensitive to the compound in the broth the growth will be inhibited. Similarly, if the organism grows on the antibiotic containing medium then it is resistant to this particular antibiotic.

[2] = system: Staphylococcus aureus (MRSA) ATCC 33591; assay: MIC against MRSA, microbroth dilution; conditions: MIC class
Procedure: as §1, §2, §3, §4
(§6) The trays were prepared in a similar way as mentioned above and incubated at 35° C. in a non-CO2 incubator for 18-24 hours. The plates were examined for growth after the incubation time.
(§7) After 18-24 hour incubation 5 μL from each well was then inoculated onto horse blood agar and incubated for 18-24 hours at 35° C. in a non-CO2 incubator.
as §5

[3] = system: Enterococcus faecium ATCC 35667; assay: MIC against E. faecium, microbroth dilution; conditions: MIC class
Procedure: as §1, §2, §3, §4, §6, §7, §5

E. Faecium 51299 VanB = assay: MIC against vancomycin-resistant enterococcus 51299 (VanB), microbroth dilution; conditions: MIC class; ATCC 51299 VanB
Procedure: as §1, §2, §3, §4, §6, §7, §5

[4] = system: Enterococcus faecalis ATCC 29212; assay: MIC against E. faecalis, microbroth dilution; conditions: MIC class
Procedure: as §1, §2, §3, §4, §6, §7, §5

## CCCCCCCCCCCCC(N)C(=O)NC1C(CO)OCC(Nc2c(Cl)cc(C(F)(F)F)cc2[N+](=O)[O-])C1O (stereo not drawn) [Compound 198]
[1]
  S. Aureus 25923 activity: + (“+”: MIC (μg/mL): 64 ≧ MIC > 16)
[2]
  S. Aureus 33591 MRSA activity: + (“+”: MIC (μg/mL): 64 ≧ MIC > 16)
[3]
  E. Faecium 35667 activity: + (“+”: MIC (μg/mL): 64 ≧ MIC > 16)
E. Faecium 51299 VanB
  E. Faecium 51299 VanB activity: + (“+”: MIC (μg/mL): 64 ≧ MIC > 16)
[4]
  E. Fecalis 29212 activity: + (“+”: MIC (μg/mL): 64 ≧ MIC > 16)

## Nc1ccccc1OC1C(NC(=O)Nc2ccc(Cl)c(C(F)(F)F)c2)COC(CO)C1NS(=O)(=O)c1ccc(-c2ccccc2)cc1 (stereo not drawn) [Compound 62]
[1]
  S. Aureus 25923 activity: + (“+”: MIC (μg/mL): 64 ≧ MIC > 16)
[2]
  S. Aureus 33591 MRSA activity: ++ (“++”: MIC (μg/mL): MIC ≦ 16)
[3]
  E. Faecium 35667 activity: − (“−”: MIC (μg/mL): MIC > 64)
E. Faecium 51299 VanB
  E. Faecium 51299 VanB activity: − (“−”: MIC (μg/mL): MIC > 64)
[4]
  E. Fecalis 29212 activity: − (“−”: MIC (μg/mL): MIC > 64)

## O=C(Nc1ccc(Cl)c(C(F)(F)F)c1)NC1COC(CO)C(n2c(NCc3ccc4ccccc4c3)nc3cc(C(F)(F)F)ccc32)C1O (stereo not drawn) [Compound 251]
[1]
  S. Aureus 25923 activity: ++ (“++”: MIC (μg/mL): MIC ≦ 16)
[2]
  S. Aureus 33591 MRSA activity: ++ (“++”: MIC (μg/mL): MIC ≦ 16)
[3]
  E. Faecium 35667 activity: ++ (“++”: MIC (μg/mL): MIC ≦ 16)
E. Faecium 51299 VanB
  E. Faecium 51299 VanB activity: ++ (“++”: MIC (μg/mL): MIC ≦ 16)
[4]
  E. Fecalis 29212 activity: ++ (“++”: MIC (μg/mL): MIC ≦ 16)

## Nc1nc2cc(C(F)(F)F)cc(Cl)c2n1C1COC(CO)C(NC(=O)c2ccc(-c3ccccc3)cc2)C1O (stereo not drawn) [Compound 155]
[1]
  S. Aureus 25923 activity: + (“+”: MIC (μg/mL): 64 ≧ MIC > 16)
[2]
  S. Aureus 33591 MRSA activity: + (“+”: MIC (μg/mL): 64 ≧ MIC > 16)
[3]
  E. Faecium 35667 activity: − (“−”: MIC (μg/mL): MIC > 64)
E. Faecium 51299 VanB
  E. Faecium 51299 VanB activity: − (“−”: MIC (μg/mL): MIC > 64)
[4]
  E. Fecalis 29212 activity: − (“−”: MIC (μg/mL): MIC > 64)

## O=S(=O)(NC1COC(CO)C(n2c(NCc3cccc(Oc4ccccc4)c3)nc3cc(C(F)(F)F)ccc32)C1O)c1ccc(C(F)(F)F)cc1 (stereo not drawn) [Compound 268]
[1]
  S. Aureus 25923 activity: ++ (“++”: MIC (μg/mL): MIC ≦ 16)

## NC(CC(=O)Nc1nc2cc(C(F)(F)F)ccc2n1C1C(CO)OCC(NS(=O)(=O)c2ccc(C(F)(F)F)cc2)C1O)c1ccc(-c2ccccc2)cc1 (stereo not drawn) [Compound 242]
[1]
  S. Aureus 25923 activity: ++ (“++”: MIC (μg/mL): MIC ≦ 16)
[2]
  S. Aureus 33591 MRSA activity: ++ (“++”: MIC (μg/mL): MIC ≦ 16)
[3]
  E. Faecium 35667 activity: ++ (“++”: MIC (μg/mL): MIC ≦ 16)
E. Faecium 51299 VanB
  E. Faecium 51299 VanB activity: − (“−”: MIC (μg/mL): MIC > 64)
[4]
  E. Fecalis 29212 activity: ++ (“++”: MIC (μg/mL): MIC ≦ 16)

## CC(C)(C)c1ccc(CNc2nc3cc(C(F)(F)F)ccc3n2C2C(CO)OCC(NS(=O)(=O)c3ccc(C(F)(F)F)cc3)C2O)cc1 (stereo not drawn) [Compound 267]
[1]
  S. Aureus 25923 activity: ++ (“++”: MIC (μg/mL): MIC ≦ 16)

## O=S(=O)(NC1COC(CO)C(n2c(NCc3cccc(Oc4ccccc4)c3)nc3cc(C(F)(F)F)cc(Cl)c32)C1O)c1ccc(C(F)(F)F)cc1 (stereo not drawn) [Compound 277]
[1]
  S. Aureus 25923 activity: + (“+”: MIC (μg/mL): 64 ≧ MIC > 16)

## O=C(Nc1ccc(Cl)c(C(F)(F)F)c1)NC1COC(CO)C(n2c(NCc3cccc(Oc4ccccc4)c3)nc3cc(C(F)(F)F)cc(Cl)c32)C1O (stereo not drawn) [Compound 258]
[1]
  S. Aureus 25923 activity: ++ (“++”: MIC (μg/mL): MIC ≦ 16)

## O=S(=O)(NC1COC(CO)C(n2c(NCc3ccccc3)nc3cc(C(F)(F)F)ccc32)C1O)c1ccc(C(F)(F)F)cc1 (stereo not drawn) [Compound 265]
[1]
  S. Aureus 25923 activity: + (“+”: MIC (μg/mL): 64 ≧ MIC > 16)

## O=C(Nc1ccc(Cl)c(C(F)(F)F)c1)NC1COC(CO)C(n2c(NCc3ccc4ccccc4c3)nc3cc(C(F)(F)F)cc(Cl)c32)C1O (stereo not drawn) [Compound 261]
[1]
  S. Aureus 25923 activity: ++ (“++”: MIC (μg/mL): MIC ≦ 16)

## O=S(=O)(NC1COC(CO)C(n2c(NCc3ccc(-c4ccccc4)cc3)nc3cc(C(F)(F)F)cc(Cl)c32)C1O)c1ccc(C(F)(F)F)cc1 (stereo not drawn) [Compound 278]
[1]
  S. Aureus 25923 activity: ++ (“++”: MIC (μg/mL): MIC ≦ 16)

## O=S(=O)(NC1COC(CO)C(n2c(NCc3ccc(-c4ccccc4)cc3)nc3cc(C(F)(F)F)ccc32)C1O)c1ccc(C(F)(F)F)cc1 (stereo not drawn) [Compound 269]
[1]
  S. Aureus 25923 activity: ++ (“++”: MIC (μg/mL): MIC ≦ 16)

## O=C(Nc1ccc(Cl)c(C(F)(F)F)c1)NC1COC(CO)C(n2c(NCc3ccc(-c4ccccc4)cc3)nc3cc(C(F)(F)F)cc(Cl)c32)C1O (stereo not drawn) [Compound 259]
[1]
  S. Aureus 25923 activity: ++ (“++”: MIC (μg/mL): MIC ≦ 16)

## O=S(=O)(NC1COC(CO)C(n2c(Nc3ccc(-c4ccccc4)cc3)nc3cc(C(F)(F)F)cc(Cl)c32)C1O)c1ccc(C(F)(F)F)cc1 (stereo not drawn) [Compound 273]
[1]
  S. Aureus 25923 activity: ++ (“++”: MIC (μg/mL): MIC ≦ 16)

## O=C(NC1C(CO)OCC(NS(=O)(=O)c2ccc(Cl)c(C(F)(F)F)c2)C1O)c1ccc(-c2ccc(Cl)cc2)cc1 (stereo not drawn) [Compound 12]
[1]
  S. Aureus 25923 activity: + (“+”: MIC (μg/mL): 64 ≧ MIC > 16)

## Nc1ccccc1OC1C(NC(=O)Nc2ccc(Cl)c(C(F)(F)F)c2)COC(CO)C1NC(=O)CC(N)c1ccc(-c2ccccc2)cc1 (stereo not drawn) [Compound 72]
[1]
  S. Aureus 25923 activity: ++ (“++”: MIC (μg/mL): MIC ≦ 16)

## CC(C)(C)c1ccc(CNc2nc3cc(C(F)(F)F)cc(Cl)c3n2C2C(CO)OCC(NS(=O)(=O)c3ccc(C(F)(F)F)cc3)C2O)cc1 (stereo not drawn) [Compound 276]
[1]
  S. Aureus 25923 activity: + (“+”: MIC (μg/mL): 64 ≧ MIC > 16)

## O=S(=O)(NC1COC(CO)C(n2c(NCc3ccc(Cl)cc3)nc3cc(C(F)(F)F)ccc32)C1O)c1ccc(C(F)(F)F)cc1 (stereo not drawn) [Compound 266]
[1]
  S. Aureus 25923 activity: ++ (“++”: MIC (μg/mL): MIC ≦ 16)

## O=S(=O)(NC1COC(CO)C(n2c(NCc3ccccc3)nc3cc(C(F)(F)F)cc(Cl)c32)C1O)c1ccc(C(F)(F)F)cc1 (stereo not drawn) [Compound 274]
[1]
  S. Aureus 25923 activity: ++ (“++”: MIC (μg/mL): MIC ≦ 16)

## O=S(=O)(NC1COC(CO)C(n2c(Nc3ccc(Cl)cc3)nc3cc(C(F)(F)F)cc(Cl)c32)C1O)c1ccc(C(F)(F)F)cc1 (stereo not drawn) [Compound 271]
[1]
  S. Aureus 25923 activity: ++ (“++”: MIC (μg/mL): MIC ≦ 16)

## O=S(=O)(NC1COC(CO)C(n2c(Nc3ccc(C(F)(F)F)cc3)nc3cc(C(F)(F)F)cc(Cl)c32)C1O)c1ccc(C(F)(F)F)cc1 (stereo not drawn) [Compound 272]
[1]
  S. Aureus 25923 activity: ++ (“++”: MIC (μg/mL): MIC ≦ 16)

## O=S(=O)(NC1COC(CO)C(n2c(NCc3ccc4ccccc4c3)nc3cc(C(F)(F)F)cc(Cl)c32)C1O)c1ccc(C(F)(F)F)cc1 (stereo not drawn) [Compound 279]
[1]
  S. Aureus 25923 activity: ++ (“++”: MIC (μg/mL): MIC ≦ 16)

## O=S(=O)(NC1COC(CO)C(n2c(NCc3ccc(Cl)cc3)nc3cc(C(F)(F)F)cc(Cl)c32)C1O)c1ccc(C(F)(F)F)cc1 (stereo not drawn) [Compound 275]
[1]
  S. Aureus 25923 activity: ++ (“++”: MIC (μg/mL): MIC ≦ 16)

## O=S(=O)(NC1COC(CO)C(n2c(Nc3ccc(Cl)cc3)nc3cc(C(F)(F)F)ccc32)C1O)c1ccc(C(F)(F)F)cc1 (stereo not drawn) [Compound 262]
[1]
  S. Aureus 25923 activity: + (“+”: MIC (μg/mL): 64 ≧ MIC > 16)

## O=S(=O)(NC1COC(CO)C(n2c(Nc3ccc(-c4ccccc4)cc3)nc3cc(C(F)(F)F)ccc32)C1O)c1ccc(C(F)(F)F)cc1 (stereo not drawn) [Compound 264]
[1]
  S. Aureus 25923 activity: ++ (“++”: MIC (μg/mL): MIC ≦ 16)

## O=S(=O)(NC1COC(CO)C(n2c(Nc3ccc(C(F)(F)F)cc3)nc3cc(C(F)(F)F)ccc32)C1O)c1ccc(C(F)(F)F)cc1 (stereo not drawn) [Compound 263]
[1]
  S. Aureus 25923 activity: ++ (“++”: MIC (μg/mL): MIC ≦ 16)

## O=S(=O)(NC1COC(CO)C(n2c(NCc3ccc4ccccc4c3)nc3cc(C(F)(F)F)ccc32)C1O)c1ccc(C(F)(F)F)cc1 (stereo not drawn) [Compound 270]
[1]
  S. Aureus 25923 activity: ++ (“++”: MIC (μg/mL): MIC ≦ 16)

From patent US7989422B2, “Antibacterial agents” (Alchemia Limited, priority 2005, dated 2011)
